Assay: xn = mol fraction of the nth substance listed
Details: Fluid (supercritical or subcritical phases), vibrating tube

CCCCCO [pentan-1-ol] + O=C=O
Details	mass density [kg/m3]
323.06 K, 13032 kPa, x2 = 0.9216	766.64
323.06 K, 14000 kPa, x2 = 0.8573	804.66
323.06 K, 14011 kPa, x2 = 0.9216	778.82
323.06 K, 15019 kPa, x2 = 0.8573	812.19
323.06 K, 15028 kPa, x2 = 0.9216	789.81
323.06 K, 15995 kPa, x2 = 0.9216	799.06
323.06 K, 16044 kPa, x2 = 0.8573	819.03
323.06 K, 17005 kPa, x2 = 0.8573	824.92
323.06 K, 17047 kPa, x2 = 0.9216	808.18
323.06 K, 18002 kPa, x2 = 0.9216	815.71
323.06 K, 18049 kPa, x2 = 0.8573	830.83
323.06 K, 19010 kPa, x2 = 0.8573	835.97
323.06 K, 19033 kPa, x2 = 0.9216	823.28
323.06 K, 19996 kPa, x2 = 0.9216	829.83
323.06 K, 20006 kPa, x2 = 0.8573	840.95
323.06 K, 20987 kPa, x2 = 0.8573	845.64
323.06 K, 21053 kPa, x2 = 0.9216	836.6
323.06 K, 21758 kPa, x2 = 0.9216	840.85
323.06 K, 22019 kPa, x2 = 0.8573	850.27
323.06 K, 23021 kPa, x2 = 0.8573	854.64
323.06 K, 24075 kPa, x2 = 0.8573	858.97
323.08 K, 11058 kPa, x2 = 0.7274	819.26
323.08 K, 12031 kPa, x2 = 0.7274	823.11
323.08 K, 13034 kPa, x2 = 0.7274	826.85
323.08 K, 14040 kPa, x2 = 0.7274	830.38
323.08 K, 15010 kPa, x2 = 0.7274	833.59
323.08 K, 16026 kPa, x2 = 0.7274	836.83
323.08 K, 17015 kPa, x2 = 0.7274	839.83
323.08 K, 17987 kPa, x2 = 0.7274	842.68
323.08 K, 19054 kPa, x2 = 0.7274	845.68
323.08 K, 19981 kPa, x2 = 0.7274	848.2
323.08 K, 21008 kPa, x2 = 0.7274	850.93
323.08 K, 22014 kPa, x2 = 0.7274	853.5
323.08 K, 23019 kPa, x2 = 0.7274	855.98
323.08 K, 23836 kPa, x2 = 0.7274	857.96
323.11 K, 6015 kPa, x2 = 0.1347	801.54
323.11 K, 7002 kPa, x2 = 0.1347	802.41
323.11 K, 8020 kPa, x2 = 0.1347	803.27
323.11 K, 9002 kPa, x2 = 0.1347	804.12
323.11 K, 9115 kPa, x2 = 0.6054	824.57
323.11 K, 10017 kPa, x2 = 0.1347	804.97
323.11 K, 10057 kPa, x2 = 0.6054	826.64
323.11 K, 11055 kPa, x2 = 0.1347	805.83
323.11 K, 11062 kPa, x2 = 0.6054	828.82
323.11 K, 12029 kPa, x2 = 0.1347	806.64
323.11 K, 12049 kPa, x2 = 0.6054	830.92
323.11 K, 13031 kPa, x2 = 0.1347	807.47
323.11 K, 13068 kPa, x2 = 0.6054	833.05
323.11 K, 14038 kPa, x2 = 0.1347	808.26
323.11 K, 14062 kPa, x2 = 0.6054	835.02
323.11 K, 15022 kPa, x2 = 0.1347	809.05
323.11 K, 15036 kPa, x2 = 0.6054	836.96
323.11 K, 16015 kPa, x2 = 0.1347	809.84
323.11 K, 16032 kPa, x2 = 0.6054	838.86
323.11 K, 17022 kPa, x2 = 0.1347	810.64
323.11 K, 17053 kPa, x2 = 0.6054	840.77
323.11 K, 18041 kPa, x2 = 0.1347	811.39
323.11 K, 18069 kPa, x2 = 0.6054	842.62
323.11 K, 19010 kPa, x2 = 0.1347	812.15
323.11 K, 19041 kPa, x2 = 0.6054	844.36
323.11 K, 20025 kPa, x2 = 0.1347	812.91
323.11 K, 20032 kPa, x2 = 0.6054	846.09

— the NIST ThermoML archive (doi:10.1016/j.jct.2007.07.005)
